Activity data for 1 molecule are collected here from ChEMBL document CHEMBL3044667, “Insecticidal activities of crude extracts and phospholipids from Chenopodium ficifolium against melon and cotton aphid, Aphis gossypii” (2010).

Test [1] relates to Aphis gossypii. Put plainly: Insecticidal activity against Aphis gossypii (cotton aphid) infested fourth-leaf stage cucumber seedlings followed by compound exposure at 1000 ug/ml assessed as induction of insect death on leaves after 48 hr post compound treatment relative to untreated control. Format: functional, organism-based.
In test [2] the test system is Aphis gossypii. Kind of test: Insecticidal activity against Aphis gossypii (cotton aphid) infested fourth-leaf stage cucumber seedlings followed by compound exposure assessed as insect control after 48 hr post compound treatment relative to untreated control. The test is classed as functional, organism-based.

The structures appear in SMILES notation. Calls of active or inactive are those of the source. The calls are words filed in the database; no cut-off is given here.

Consider `CCCCCCCCCCCCC=CCC(=O)OC(COC(=O)CCCCCCCCCCCCCCC)COP(=O)(O)OCC(O)CO` (configuration not stated), for which, in test [1], the outcome was Active. In addition, in test [2], the Activity result was “Dose-dependent effect”.
